Experimental data as given in patent US12084472B2 (Ardelyx, Inc., priority 2015, dated 2024).

Target: T1, human TGR5 (Homo sapiens, UniProt Q8TDU6)
T1 construct: expressed in transfected cells; host or cells: HEK293
T1 sequence (Q8TDU6 1-330): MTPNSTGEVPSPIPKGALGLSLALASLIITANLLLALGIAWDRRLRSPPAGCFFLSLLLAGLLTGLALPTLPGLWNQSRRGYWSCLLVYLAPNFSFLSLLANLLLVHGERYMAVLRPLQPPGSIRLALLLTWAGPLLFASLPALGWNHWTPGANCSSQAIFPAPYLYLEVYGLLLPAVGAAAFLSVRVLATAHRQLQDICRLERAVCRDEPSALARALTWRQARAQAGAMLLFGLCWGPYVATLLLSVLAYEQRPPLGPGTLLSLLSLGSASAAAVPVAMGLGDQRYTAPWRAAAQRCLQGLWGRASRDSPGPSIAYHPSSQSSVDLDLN
Experiment: Cell-based TGR5 assay (cAMP generation, HTRF)
Conditions: HEK293 cells stably transfected with human TGR5; cAMP by HTRF; 30 minutes at 37° C.; read-out: pEC50 Human TGR5 (converted)
Method in brief: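 Read-out was HTRF detection of cAMP, converted to concentration via a standard curve and fitted (3-parameter logistic) for pEC50 and maximal response. Agonist stimulation used HEK293 cells stably transfected with human TGR5, incubated 30 min at 37° C in IBMX-containing buffer at 0.05 nM to 10 μM compound.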

Row | SMILES | EC50
1 | CN(CC(=O)O)C[C@H](NC(=O)CCCCc1cc(Cl)c(COC2(c3cnccc3-c3ccccc3OC3CC3)CC2)cc1Cl)[C@@H](O)[C@H](O)[C@H](O)CO (stereo in doubt) [Compound I-164, 2-{[(2S,3R,4S,5R)-2-{5-[2,5-dichloro-4-({1-[4-(2-cyclopropoxyphenyl)pyridin-3-yl]cyclopropoxy}methyl)phenyl]pentanamido}-3,4,5,6-tetrahydroxyhexyl](methyl)amino}acetic acid] | < 100 nM
2 | O=C(CCCSc1ccc(Cl)c(COC2(c3cnccc3-c3ccccc3OC3CC3)CC2)c1)N(CCO)C[C@H](O)[C@@H](O)[C@H](O)[C@H](O)CO [Compound I-660, 4-{[4-chloro-3-({1-[4-(2-cyclopropoxyphenyl)pyridin-3-yl]cyclopropoxy}methyl)phenyl]sulfanyl}-N-(2-hydroxyethyl)-N-[(2S,3R,4R,5R)-2,3,4,5,6-pentahydroxyhexyl]butanamide] | 126 to 1000 nM
3 | O=C1NCCN1CCN(CCCSc1ccc(Cl)c(CNC2(c3cnccc3-c3ccccc3OC3CC3)CC2)c1)C(=O)[C@@H](O)[C@@H](O)[C@H](O)[C@@H](O)CO [Compound I-531, (2S,3S,4R,5S)-N-[3-({4-chloro-3-[({1-[4-(2-cyclopropoxyphenyl)pyridin-3-yl]cyclopropyl}amino)methyl]phenyl}sulfanyl)propyl]-2,3,4,5,6-pentahydroxy-N-[2-(2-oxoimidazolidin-1-yl)ethyl]hexanamide] | 126 to 1000 nM
4 | COc1c(F)cc(CNC2(c3cnccc3-c3ccccc3OC3CC3)CC2)c(C)c1Cl [Compound I-36, N-[(3-chloro-5-fluoro-4-methoxy-2-methylphenyl)methyl]-1-[4-(2-cyclopropoxyphenyl)pyridin-3-yl]cyclopropan-1-amine] | 126 to 1000 nM
5 | O=C(CN1CCN(S(=O)(=O)c2ccc(Cl)c(COC3(c4cnccc4-c4ccccc4OC4CC4)CC3)c2)CC1)NC[C@H](O)[C@@H](O)[C@H](O)[C@H](O)CO [Compound I-440, 2-{4-[4-chloro-3-({1-[4-(2-cyclopropoxyphenyl)pyridin-3-yl]cyclopropoxy}methyl)benzenesulfonyl]piperazin-1-yl}-N-[(2S,3R,4R,5R)-2,3,4,5,6-pentahydroxyhexyl]acetamide] | 126 to 1000 nM
6 | Clc1cccc(COC2(c3cnccc3-c3ccccc3OC3CC3)CC2)c1Cl [Compound I-47, 4-(2-cyclopropoxyphenyl)-3-{1-[(2,3-dichlorophenyl)methoxy]cyclopropyl}pyridine] | 126 to 1000 nM
7 | O=C([C@@H](O)[C@@H](O)[C@H](O)[C@@H](O)CO)N(CCCCSc1ccc(Cl)c(COC2(c3cnccc3-c3ccccc3OC3CC3)CC2)c1)C1CCOCC1 [Compound I-514, (2S,3S,4R,5S)-N-(4-{[4-chloro-3-({1-[4-(2-cyclopropoxyphenyl)pyridin-3-yl]cyclopropoxy}methyl)phenyl]sulfanyl}butyl)-2,3,4,5,6-pentahydroxy-N-(oxan-4-yl)hexanamide] | < 100 nM
8 | CC(=O)NCCN(CCCCSc1ccc(Cl)c(CNC2(c3cnccc3-c3ccccc3OC3CC3)CC2)c1)C(=O)[C@@H](O)[C@@H](O)[C@H](O)[C@@H](O)CO [Compound I-563, (2S,3S,4R,5S)-N-[4-({4-chloro-3-[({1-[4-(2-cyclopropoxyphenyl)pyridin-3-yl]cyclopropyl}amino)methyl]phenyl}sulfanyl)butyl]-N-(2-acetamidoethyl)-2,3,4,5,6-pentahydroxyhexanamide] | 126 to 1000 nM
9 | CCN(C[C@H](O)[C@@H](O)[C@H](O)[C@H](O)CO)C(=O)CCCC(C)c1ccc(C)c(COC2(c3cnccc3-c3ccccc3OC3CC3)CC2)c1 (stereo partly drawn) [Compound I-375, 5-[3-({1-[4-(2-cyclopropoxyphenyl)pyridin-3-yl]cyclopropoxy}methyl)-4-methylphenyl]-N-ethyl-N-[(2S,3R,4R,5R)-2,3,4,5,6-pentahydroxyhexyl]hexanamide] | < 100 nM
10 | Cc1ccc(CCCCCNC(=O)NC[C@H](O)[C@@H](O)[C@H](O)[C@H](O)CO)nc1CNC1(c2cnccc2-c2ccccc2OC2CC2)CC1 [Compound I-707] | 1260 to 10000 nM
11 | CCCC(=O)N(CCCCc1cc(Cl)c(COC2(c3cnccc3-c3ccccc3OC3CC3)CC2)cc1Cl)C[C@H](O)[C@@H](O)[C@H](O)[C@H](O)CO [Compound I-74, N-{4-[2,5-dichloro-4-({1-[4-(2-cyclopropoxyphenyl)pyridin-3-yl]cyclopropoxy}methyl)phenyl]butyl}-N-[(2S,3R,4R,5R)-2,3,4,5,6-pentahydroxyhexyl]butanamide] | 126 to 1000 nM
12 | CC(CCCN(CCCCO)C(=O)[C@@H](O)[C@@H](O)[C@H](O)[C@@H](O)CO)c1ccc(Cl)c(CNC2(c3cnccc3-c3ccccc3OC3CC3)CC2)c1 (stereo partly drawn) [Compound I-283, (2S,3S,4R,5S)-N-(4-{4-chloro-3-[({1-[4-(2-cyclopropoxyphenyl)pyridin-3-yl]cyclopropyl}amino)methyl]phenyl}pentyl)-2,3,4,5,6-pentahydroxy-N-(4-hydroxybutyl)hexanamide] | < 100 nM
13 | CN(CCCCN(CCS(C)(=O)=O)C(=O)[C@@H](O)[C@@H](O)[C@H](O)[C@@H](O)CO)S(=O)(=O)c1ccc(Cl)c(COC2(c3cnccc3-c3ccccc3OC3CC3)CC2)c1 [Compound I-459, (2S,3S,4R,5S)-2,3,4,5,6-pentahydroxy-N-(2-methanesulfonylethyl)-N-{4-[N-methyl4-chloro-3-({1-[4-(2-cyclopropoxyphenyl)pyridin-3-yl]cyclopropoxy}methyl)benzenesulfonamido]butyl}hexanamide] | < 100 nM

Other lines, results leading:

Row | EC50 | SMILES
14 | < 100 nM | CCOC(=O)NCCCN(CCCCSc1ccc(Cl)c(CNC2(c3cnccc3-c3ccccc3OC3CC3)CC2)c1)C(=O)[C@@H](O)[C@@H](O)[C@H](O)[C@@H](O)CO [Compound I-574, ethyl N-{3-[(2S,3S,4R,5S)-N-[4-({4-chloro-3-[({1-[4-(2-cyclopropoxyphenyl)pyridin-3-yl]cyclopropyl}amino)methyl]phenyl}sulfanyl)butyl]-2,3,4,5,6-pentahydroxyhexanamido]propyl}carbamate]
15 | < 100 nM | FC(F)(F)c1ccc(Cl)c(COC2(c3cnccc3-c3ccccc3OC3CC3)CC2)c1 [Compound I-52, 3-(1-{[2-chloro-5-(trifluoromethyl)phenyl]methoxy}cyclopropyl)-4-(2-cyclopropoxyphenyl)pyridine]
16 | < 100 nM | Cc1ccc(C(C)CCCNC(=O)[C@@H](O)[C@@H](O)[C@H](O)[C@@H](O)CO)cc1CNC1(c2cnccc2-c2ccccc2OC2CC2)CC1 (stereo partly drawn) [Compound I-299, (2S,3S,4R,5S)-N-(4-{3-[({1-[4-(2-cyclopropoxyphenyl)pyridin-3-yl]cyclopropyl}amino)methyl]-4-methylphenyl}pentyl)-2,3,4,5,6-pentahydroxyhexanamide]
17 | 126 to 1000 nM | O=C(O)CN(CCN(CC(=O)O)CC(=O)NCCOCCSc1ccc(Cl)c(COC2(c3cnccc3-c3ccccc3OC3CC3)CC2)c1)CC(=O)NCCOCCSc1ccc(Cl)c(COC2(c3cnccc3-c3ccccc3OC3CC3)CC2)c1 [Compound I-612, 2-({2-[(carboxymethyl)({[2-(2-{[4-chloro-3-({1-[4-(2-cyclopropoxyphenyl)pyridin-3-yl]cyclopropoxy}methyl)phenyl]sulfanyl}ethoxy)ethyl]carbamoyl}methyl)amino]ethyl}({[2-(2-{[4-chloro-3-({1-[4-(2-cyclopropoxyphenyl)pyridin-3-yl]cyclopropoxy}methyl)phenyl]sulfanyl}ethoxy)ethyl]carbamoyl}methyl)amino)acetic acid]
18 | < 100 nM | CC(=O)N(CCCCCSc1ccc(Cl)c(CNC2(c3cnccc3-c3ccccc3OC3CC3)CC2)c1)C[C@H](O)[C@@H](O)[C@H](O)[C@H](O)CO [Compound I-499, N-[5-({4-chloro-3-[({1-[4-(2-cyclopropoxyphenyl)pyridin-3-yl]cyclopropyl}amino)methyl]phenyl}sulfanyl)pentyl]-N-[(2S,3R,4R,5R)-2,3,4,5,6-pentahydroxyhexyl]acetamide]
19 | 126 to 1000 nM | O=C(NC[C@H](O)[C@@H](O)[C@H](O)[C@H](O)CO)c1cccc(OCc2ccc(Cl)c(COC3(c4cnccc4-c4ccccc4OC4CC4)CC3)c2)c1 [Compound I-727, 3-((4-chloro-3-((1-(4-(2-cyclopropoxyphenyl)pyridin-3-yl)cyclopropoxy)methyl)benzyl)oxy)-N-((2S,3R,4R,5R)-2,3,4,5,6-pentahydroxyhexyl)benzamide]
20 | < 100 nM | CN(C[C@H](O)[C@@H](O)[C@H](O)[C@H](O)CO)C(=O)c1ccc(CSc2ccc(Cl)c(COC3(c4cnccc4-c4ccccc4OC4CC4)CC3)c2)cc1 [Compound I-685, 4-({[4-chloro-3-({1-[4-(2-cyclopropoxyphenyl)pyridin-3-yl]cyclopropoxy}methyl)phenyl]sulfanyl}methyl)-N-methyl-N-[(2S,3R,4R,5R)-2,3,4,5,6-pentahydroxyhexyl]benzamide]
21 | < 100 nM | O=C(NC[C@H](O)[C@@H](O)[C@H](O)[C@H](O)CO)[C@H]1CC[C@H](CNS(=O)(=O)c2ccc(Cl)c(COC3(c4cnccc4-c4ccccc4OC4CC4)CC3)c2)CC1 [Compound I-436, (1r,4r)-4-[4-chloro-3-({1-[4-(2-cyclopropoxyphenyl)pyridin-3-yl]cyclopropoxy}methyl)benzenesulfonamidomethyl]-N-[(2S,3R,4R,5R)-2,3,4,5,6-pentahydroxyhexyl]cyclohexane-1-carboxamide]
